Assays:
ER = biological target: T1, ER (Homo sapiens, UniProt P03372); assay: In-cell western blot analysis, relative ER percentage (compounds B1-B126); format: cell-based; conditions: ER degradation, 16 hours, read-out: ICW DC50
T1 construct: endogenous in cells; probably T47D or MCF-7
T1 sequence (P03372 1-595): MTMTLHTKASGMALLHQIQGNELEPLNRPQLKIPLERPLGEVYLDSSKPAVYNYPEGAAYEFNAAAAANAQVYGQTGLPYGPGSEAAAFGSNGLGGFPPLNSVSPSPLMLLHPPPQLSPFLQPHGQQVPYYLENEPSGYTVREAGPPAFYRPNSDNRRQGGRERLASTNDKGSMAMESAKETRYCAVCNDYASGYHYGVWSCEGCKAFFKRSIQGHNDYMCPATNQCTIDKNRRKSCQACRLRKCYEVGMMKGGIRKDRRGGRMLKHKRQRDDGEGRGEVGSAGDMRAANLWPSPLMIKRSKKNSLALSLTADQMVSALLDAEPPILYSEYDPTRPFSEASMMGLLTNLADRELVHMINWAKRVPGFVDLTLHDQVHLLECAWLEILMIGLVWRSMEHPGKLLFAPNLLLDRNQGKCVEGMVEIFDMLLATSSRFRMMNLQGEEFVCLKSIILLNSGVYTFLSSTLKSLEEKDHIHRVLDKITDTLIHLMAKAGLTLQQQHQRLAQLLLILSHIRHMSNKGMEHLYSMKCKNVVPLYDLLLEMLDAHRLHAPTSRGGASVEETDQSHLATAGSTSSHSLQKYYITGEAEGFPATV
How it was run: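 Readout was a two-colour infrared in-cell western of formaldehyde-fixed cells after 16 h compound exposure at 0.5% DMSO, with 40,000 or 10,000 cells/well plated the previous night. Relative ER percentage compares treated wells against untreated/DMSO-treated wells taken as 100%.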

[1] = Cell growth assay, WST-8 (compounds B1-B126); format: cell-based; conditions: 96 h; T47D cell line, WST-8, 4 days; read-out: Cell growth inhibition in T47D cell line IC50
How it was run: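 Read-out is WST-8 absorbance at 450 nm (2.5 h, 37° C) as a fraction of vehicle control, from three separate repeats. Compound exposure lasted 4 days, starting one day after plating 1500 cells/well.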

Structure (SMILES)	DC50 (ER) [nM]	IC50 [1] [nM]
C[C@@H]1Cc2c(ccc3[nH]ncc23)[C@@H](c2ccc(N3CCC4(CC3)CC(CN3CCN5c6ccc7c(c6OC[C@@H]5C3)CN(C3CCC(=O)NC3=O)C7=O)C4)cn2)N1CC(F)(F)F (stereo partly drawn) [Compound B107, 3-((S)-7-((7-(6-((6S,8R)-8-methyl-7-(2,2,2-trifluoroethyl)-6,7,8,9-tetrahydro-3H-pyrazolo[4,3-f]isoquinolin-6-yl)pyridin-3-yl)-7-azaspiro[3.5]nonan-2-yl)methyl)-1-oxo-1,3,5,5a,6,7,8,9-octahydro-2H-pyrazino[1′,2′:4,5][1,4]oxazino[2,3-e]isoindol-2-yl)piperidine-2,6-dione]	10 to 100	< 1
COc1c2c(cc3c1CN(C1CCC(=O)NC1=O)C3=O)CN(CC(=O)N1CCC3(CC1)CCN(c1cc(F)c([C@@H]4c5ccc6[nH]ncc6c5C[C@@H](C)N4CC(F)F)c(F)c1)CC3)C2 (stereo partly drawn) [Compound B72, 3-(6-(2-(9-(4-((6S,8R)-7-(2,2-difluoroethyl)-8-methyl-6,7,8,9-tetrahydro-3H-pyrazolo[4,3-f]isoquinolin-6-yl)-3,5-difluorophenyl)-3,9-diazaspiro[5.5]undecan-3-yl)-2-oxoethyl)-4-methoxy-1-oxo-3,5,6,7-tetrahydropyrrolo[3,4-f]isoindol-2(1H)-yl)piperidine-2,6-dione]	< 10	1 to 10
C[C@@H]1Cc2c(ccc3[nH]ncc23)[C@@H](c2ccc(N3CCC4(CC3)CC(CN3CCN5c6c(ccc7c6CN(C6CCC(=O)NC6=O)C7=O)OC[C@@H]5C3)C4)cn2)N1CC(F)(F)F (stereo partly drawn) [Compound B109, 3-((S)-9-((7-(6-((6S,8R)-8-methyl-7-(2,2,2-trifluoroethyl)-6,7,8,9-tetrahydro-3H-pyrazolo[4,3-f]isoquinolin-6-yl)pyridin-3-yl)-7-azaspiro[3.5]nonan-2-yl)mcthyl)-3-oxo-1,3,7,7a,8,9,10,11-octahydro-2H-pyrazino[1′,2′:4,5][1,4]oxazino[3,2-e]isoindol-2-yl)piperidine-2,6-dione]	> 100	1 to 10
C[C@@H]1Cc2c(ccc3[nH]ncc23)[C@@H](c2ccc(N3CCC4(CC3)CC(CN3CCC5(CC3)COc3c5ccc5c3CN(C3CCC(=O)NC3=O)C5=O)CO4)cn2)N1CC(F)(F)F (stereo partly drawn) [Compound B95, 3-(1′-((8-(6-((6S,8R)-8-methyl-7-(2,2,2-trifluoroethyl)-6,7,8,9-tetrahydro-3H-pyrazolo[4,3-f]isoquinolin-6-yl)pyridin-3-yl)-1-oxa-8-azaspiro[4.5]decan-3-yl)methyl)-6-oxo-6,8-dihydro-2H,7H-spiro[furo[2,3-e]isoindole-3,4′-piperidin]-7-yl)piperidine-2,6-dione]	> 100	< 1
C[C@@H]1Cc2c(ccc3[nH]ncc23)[C@@H](c2c(F)cc(N3CCN(C(=O)CN4CCN5c6cc7c(cc6OC[C@@H]5C4)C(=O)N(C4CCC(=O)NC4=O)C7)CC3)cc2F)N1CC(F)F (stereo partly shown) [Compound B31]	10 to 100	< 1
C[C@@H]1Cc2c(ccc3[nH]ncc23)[C@@H](c2ccc(N3CCC4(CC3)CC(CN3CCC5(CC3)COc3c5ccc5c3CN(C3CCC(=O)NC3=O)C5=O)C4)cn2)N1CC(F)(F)F (stereo partly drawn) [Compound B60, 3-(1′-((7-(6-((6S,8R)-8-methyl-7-(2,2,2-trifluoroethyl)-6,7,8,9-tetrahydro-3H-pyrazolo[4,3-f]isoquinolin-6-yl)pyridin-3-yl)-7-azaspiro[3.5]nonan-2-yl)methyl)-6-oxo-6,8-dihydro-2H,7H-spiro[furo[2,3-e]isoindole-3,4′-piperidin]-7-yl)piperidine-2,6-dione]	< 10	< 1
C[C@@H]1Cc2c(ccc3[nH]ncc23)[C@@H](c2c(F)cc(N3CCC(CN4CCC5(CC4)COc4c5ccc5c4CN(C4CCC(=O)NC4=O)C5=O)CC3)cc2F)N1CC(F)F (stereo partly drawn) [Compound B114, 3-(1′-((1-(4-((6S,8R)-7-(2,2-difluoroethyl)-8-methyl-6,7,8,9-tetrahydro-3H-pyrazolo[4,3-f]isoquinolin-6-yl)-3,5-difluorophenyl)piperidin-4-yl)methyl)-6-oxo-6,8-dihydro-2H,7H-spiro[furo[2,3-e]isoindole-3,4′-piperidin]-7-yl)piperidine-2,6-dione]	> 100	< 1
C[C@@H]1Cc2c(ccc3[nH]ncc23)[C@@H](c2c(F)cc(N3CCC(CN4CC(N5CCN6c7cc8c(cc7OC[C@@H]6C5)C(=O)N(C5CCC(=O)NC5=O)C8)C4)CC3)cc2F)N1CC(F)F (stereo partly drawn) [Compound B46, 3-((S)-3-(1-((1-(4-((6S,8R)-7-(2,2-difluoroethyl)-8-methyl-6,7,8,9-tetrahydro-3H-pyrazolo[4,3-f]isoquinolin-6-yl)-3,5-difluorophenyl)piperidin-4-yl)methyl)azetidin-3-yl)-8-oxo-1,2,3,4,4a,5,8,10-octahydro-9H-pyrazino[1′,2′:4,5][1,4]oxazino[2,3-f]isoindol-9-yl)piperidine-2,6-dione]	< 10	< 1
C[C@H]1Cc2c(ccc3[nH]ncc23)[C@H](c2ccc(NC3CN(C(=O)CN4CCN5c6cc7c(cc6OC[C@@H]5C4)C(=O)N(C4CCC(=O)NC4=O)C7)C3)cn2)N1CC(F)(F)F (stereo partly drawn) [Compound B35, 3-((S)-3-(2-(3-((6-((6R,8S)-8-methyl-7-(2,2,2-trifluoroethyl)-6,7,8,9-tetrahydro-3H-pyrazolo[4,3-f]isoquinolin-6-yl)pyridin-3-yl)amino)azetidin-1-yl)-2-oxoethyl)-8-oxo-1,2,3,4,4a,5,8,10-octahydro-9H-pyrazino[1′,2′:4,5][1,4]oxazino[2,3-f]isoindol-9-yl)piperidine-2,6-dione]	10 to 100	> 10
C[C@@H]1Cc2c(ccc3[nH]ncc23)[C@@H](c2c(F)cc(NC3CN(C(=O)CN4CCN5c6ccc7c(c6OC[C@H]5C4)CN(C4CCC(=O)NC4=O)C7=O)C3)cc2F)N1CC(F)F (stereo partly drawn) [Compound B100, 3-((R)-7-(2-(3-((4-((6S,8R)-7-(2,2-difluoroethyl)-8-methyl-6,7,8,9-tetrahydro-3H-pyrazolo[4,3-f]isoquinolin-6-yl)-3,5-difluorophenyl)amino)azetidin-1-yl)-2-oxoethyl)-1-oxo-1,3,5,5a,6,7,8,9-octahydro-2H-pyrazino[1′,2′:4,5][1,4]oxazino[2,3-e]isoindol-2-yl)piperidine-2,6-dione]	10 to 100	1 to 10
C[C@@H]1Cc2c(ccc3[nH]ncc23)[C@@H](c2c(F)cc(NC3CC4(C3)CN(C(=O)CN3Cc5cc6c(cc5C3)C(=O)N(C3CCC(=O)NC3=O)C6=O)C4)cc2F)N1CC(F)F (stereo partly drawn) [Compound B44, 6-(2-(6-((4-((6S,8R)-7-(2,2-difluoroethyl)-8-methyl-6,7,8,9-tetrahydro-3H-pyrazolo[4,3-f]isoquinolin-6-yl)-3,5-difluorophenyl)amino)-2-azaspiro[3.3]heptan-2-yl)-2-oxoethyl)-2-(2,6-dioxopiperidin-3-yl)-6,7-dihydropyrrolo[3,4-f]isoindole-1,3(2H,5H)-dione]	< 10	< 1
C[C@@H]1Cc2c(ccc3[nH]ncc23)[C@@H](c2ccc(N3CC4(CCC(CN5CCN6c7c(ccc8c7CN(C7CCC(=O)NC7=O)C8=O)OC[C@@H]6C5)CC4)C3)cn2)N1CC(F)(F)F (stereo partly drawn) [Compound B110, 3-((S)-9-((2-(6-((6S,8R)-8-methyl-7-(2,2,2-trifluoroethyl)-6,7,8,9-tetrahydro-3H-pyrazolo[4,3-f]isoquinolin-6-yl)pyridin-3-yl)-2-azaspiro[3.5]nonan-7-yl)methyl)-3-oxo-1,3,7,7a,8,9,10,11-octahydro-2H-pyrazino[1′,2′:4,5][1,4]oxazino[3,2-e]isoindol-2-yl)piperidine-2,6-dione]	> 100	1 to 10
C[C@@H]1Cc2c(ccc3[nH]ncc23)[C@@H](c2ccc(N3CCC(N4CC(N5CCN6c7cc8c(cc7OC[C@@H]6C5)C(=O)N(C5CCC(=O)NC5=O)C8)C4)CC3)cn2)N1CC(F)(F)F (stereo partly drawn) [Compound B52, 3-((S)-3-(1-(1-(6-((6S,8R)-8-methyl-7-(2,2,2-trifluoroethyl)-6,7,8,9-tetrahydro-3H-pyrazolo[4,3-f]isoquinolin-6-yl)pyridin-3-yl)piperidin-4-yl)azetidin-3-yl)-8-oxo-1,2,3,4,4a,5,8,10-octahydro-9H-pyrazino[1′,2′:4,5][1,4]oxazino[2,3-f]isoindol-9-yl)piperidine-2,6-dione]	< 10	< 1
C[C@@H]1Cc2c(ccc3[nH]ncc23)[C@@H](c2c(F)cc(NC3CC4(C3)CN(CC(=O)N3CCN5c6cc7c(cc6OC[C@@H]5C3)C(=O)N(C3CCC(=O)NC3=O)C7)C4)cc2F)N1CC(F)F (stereo partly drawn) [Compound B42, 3-((S)-3-(2-(6-((4-((6S,8R)-7-(2,2-difluoroethyl)-8-methyl-6,7,8,9-tetrahydro-3H-pyrazolo[4,3-f]isoquinolin-6-yl)-3,5-difluorophenyl)amino)-2-azaspiro[3.3]heptan-2-yl)acetyl)-8-oxo-1,2,3,4,4a,5,8,10-octahydro-9H-pyrazino[1′,2′:4,5][1,4]oxazino[2,3-f]isoindol-9-yl)piperidine-2,6-dione]	< 10	< 1

Source: patent US20260256925A1, “INDAZOLE DERIVATIVES AS ESTROGEN RECEPTOR DEGRADERS” (REGENTS OF THE UNIVERSITY OF MICHIGAN, priority 2022, published 2026)
